# In paper PMC12787000 (Molecules, 2025):
# Experiments:
# [1] = test system: A375 cells; conditions: A375, 24 h, compared to untreated control
# Experimental: Changes in mitochondrial membrane potential were analyzed using the JC-1 Mitochondrial Membrane Potential Assay Kit (ab113850) according to the manufacturer’s instructions. […] After 24 h, cells were incubated with the JC-1 staining solution at 37 °C for 30 min in dark, washed with 1X Dilution Buffer, and analyzed by flow cytometry. […] The ratio of red J-aggregates to green JC-1 monomers was calculated to assess changes in mitochondrial membrane potential. Experiment was performed twice.
# [2] = test system: MRC-5 (fetal fibroblasts); assay: MTT cell viability assay, MRC-5; assay type: cell-based; conditions: Homo sapiens, MRC5; MRC-5, MTT, 72 h
# Experimental: (§1) A375, MRC-5, and HaCaT cell lines were obtained from the American Type Culture Collection (ATCC). 518A2 cell line was kindly provided by Dr. […]ć. All cell lines were cultured in RPMI 1640 medium supplemented with 2 g/L glucose, 10% fetal bovine serum (FBS), and antibiotics. […] Cell viability was assessed using the MTT assay (Sigma Aldrich, #M5655). […] After 72 h of incubation, absorbance was measured at 570 nm using a Multiskan SkyHigh microplate reader (Thermo Fisher Scientific, Helsinki, Finland). Values were corrected by subtracting the absorbance measured in wells containing cell-free medium with tested compounds.
# [3] = test system: 518A2 cells; assay: MTT cell viability assay, 518A2; assay type: cell-based; conditions: Homo sapiens; 518A2, MTT, 72 h
# Experimental: as §1
# [4] = test system: A375 cells; assay: Cellular uptake and subcellular distribution by LC-MS/MS; assay type: cell-based; conditions: A375, 25 μM, 24 h; for Compound accumulation normalized to telmisartan, Chromatin Bound: chromatin-bound nuclear fraction; for Compound accumulation normalized to telmisartan, Cytoplasm: cytoplasmic fraction; for Compound accumulation normalized to telmisartan, Cytoskeleton: cytoskeletal fraction; for Compound cell accumulation normalized to telmisartan, Whole Lysate: μmol compound per μg cell protein normalized to telmisartan
# Experimental: Cells were then trypsinized, washed with PBS and pelleted. For whole cell lysates, cell pellet was dissolved in RIPA buffer on ice. Fractions and whole cell lysates were stored at -80 °C until use. Protein concentration of lysates was determined with Pierce BCA Protein assay kit (Thermo Fisher #23225), and cell accumulation was calculated as μmol of compound per μg of cell protein and normalized to telmisartan. Concentrations of telmisartan and its derivatives were determined using liquid chromatography-tandem mass spectrometry (LC-MS/MS) method in positive HESI mode. The analysis was performed on UHPLC chromatograph […] (Thermo Fisher Scientific Inc., Madison, WI, USA), coupled to a triple quadrupole mass spectrometer TSQ Quantum Access MAX (Thermo Fisher Scientific Inc., Madison, WI, USA) with heated electrospray ionization (HESI) interface. The column was Zorbax Extend C18 (150 mm × 4.6 mm, 5 μm particle size). […] Experiment was repeated twice.
# [5] = test system: A375R cells; assay: MTT cell viability assay, vemurafenib-resistant A375R; assay type: cell-based; conditions: for IC50: A375R, MTT, 72 h
# Experimental: as §1
# [6] = set-up: method as in PMID 11014323; conditions: males, oral intake of 320 mg; cited from earlier work
# [7] = test system: HaCaT (human keratinocytes); assay: MTT cell viability assay, HaCaT; assay type: cell-based; conditions: 72 h
# Experimental: as §1
# [8] = test system: A375 cells; assay: MTT cell viability assay, A375; assay type: cell-based; conditions: 72 h; for IC50: Homo sapiens, A-375, A375, MTT
# Experimental: as §1
# [9] = test system: A375R cells; assay: Cell cycle distribution (PI, flow cytometry), A375R; assay type: cell-based; conditions: 25 µM, 72 h
# Experimental: (§2) A375 and A375R cells were seeded in 6-well plates at a density of 150,000 cells per well. On the following day, the cells were treated with 25 µM concentrations of compounds 1, 3, and 8, as well as telmisartan. After 72 h of incubation, the cells were harvested using trypsin, washed with phosphate-buffered saline (PBS), fixed in ethanol, and stored at −20 °C until analysis. Ethanol-fixed cells were treated with RNase A (1 mg/mL) and stained with propidium iodide (PI; 400 µg/mL). A total of 20,000 events were recorded per sample. Quantitative analysis of the cell cycle phase distribution was performed by flow cytometry using a FACSCalibur flow cytometer (Becton Dickinson, San Jose, CA, USA) and BD CellQuest Pro Version 5.2.1 software. Experiment was performed three times. Cells under treatment were compared to controls for each cell phase separately with one-way ANOVA and Dunnett’s multiple comparison tests. p < 0.05 was considered statistically significant.
# [10] = target: T1, AT1R (Homo sapiens, UniProt P30556); assay: Angiotensin II-induced Ca2+ release, Fluo-4 AM live-cell imaging; assay type: cell-based; conditions: 2 min; for Effect on AngII-induced Ca2+ increase (combination treatment): A375, 25 μM compound + 1 μM AngII
# T1 construct: endogenous in cells; host or cells: A375 melanoma cells (ATCC)
# T1 sequence (P30556 1-359): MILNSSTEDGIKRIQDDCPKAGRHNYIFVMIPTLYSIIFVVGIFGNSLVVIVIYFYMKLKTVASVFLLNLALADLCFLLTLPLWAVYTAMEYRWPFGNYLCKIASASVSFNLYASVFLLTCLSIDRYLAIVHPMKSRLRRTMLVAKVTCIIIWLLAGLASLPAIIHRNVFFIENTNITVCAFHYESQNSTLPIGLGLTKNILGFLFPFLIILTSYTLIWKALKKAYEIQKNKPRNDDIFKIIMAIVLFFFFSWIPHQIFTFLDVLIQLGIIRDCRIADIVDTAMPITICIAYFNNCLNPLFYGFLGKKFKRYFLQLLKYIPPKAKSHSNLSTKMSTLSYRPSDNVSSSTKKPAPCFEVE
# Experimental: Fluo-4 AM calcium indicator dye (F14201, Molecular Probes, Eugene, OR, USA) was used to observe Ca^2+ dynamics upon treatment, per manufacturer’s instructions. Briefly, 5000 A375 cells/well were seeded in 96-well optical bottom black cell culture plates (165305, Thermo Scientific). Fluo-4 AM stock solution in DMSO was mixed with equal volume of 20% Pluronic F-127 to assist in dispersion of AM esters before dilution into the loading medium. Twenty-four hours after seeding medium was removed, and cells were washed with HBBS without calcium and magnesium. Cells were stained in HBSS medium with 1.25 μM Fluo-4-AM for 30 min at 37 °C. After incubation, cells were washed and incubated in complete medium (10%FBS RPMI) to allow de-esterification for 30 min and then treated with 1 μM human Angiotensin II (A9525, Sigma Aldrich), 50 μM telmisartan, compounds 1, 3, and 8, or the combinations. Images were taken before addition of the treatment (0 min) and after 2 min of treatment on Zeiss PALM MicroBeam Axio Observer Z1 microscope (Carl Zeiss MicroImaging GmbH, Oberkochen, Germany) with Zeiss LD Plan-Neofluar 20×/0.4 Korr, ∞/0–1.5 mm lens and AxioVision SE64 Rel.4.9.1 software. Experiment was repeated three times. Integrated density of Fluo-4 fluorescence at 2 min of exposure to treatment was calculated with Image J, and normalized to the baseline fluorescence at time 0, in at least two random fields for each condition. Conditions were compared with one-way ANOVA and Tukey’s multiple comparisons test. p < 0.05 was considered statistically significant.
# [11] = test system: A375 cells; assay: Mitochondrial morphology staining (MitoTracker Green FM); assay type: cell-based; conditions: A375, 25 μM, 24 h
# Experimental: For imaging of the mitochondrial morphology in live cells, A375 cells seeded in 96-well optical bottom plates, as above, were treated for 24 h with 25 μM telmisartan, compound 1, 3, or 8. Treatment was washed away, and cells were stained with 500 nM MitoTracker Green FM (#9074, Cell signaling Technology, Danvers, MA, USA) in RPMI without serum for 30 min at 37 °C. Cells were imaged on Zeiss PALM MicroBeam Axio Observer Z1 microscope (Carl Zeiss MicroImaging GmbH, Oberkochen, Germany) with Zeiss LD Plan-Neofluar 20×/0.4 Korr, ∞/0–1.5 mm lens and AxioVision software. Mitochondrial shape was quantified in images from two biological experimental repeats, in three random fields for each condition, using Image J Analyze Particles function. Images were first processed to 8-bit binary, and circularity and aspect ratio (major axis/minor axis) were calculated and plotted with Prism 9 (GraphPad Software, LLC, Boston, MA, USA). Treatments were compared with untreated control using one-way ANOVA and Dunnett’s multiple comparisons test. p < 0.05 was considered statistically significant.
# [12] = test system: A375 cells; assay: Cell cycle distribution (PI, flow cytometry), A375; assay type: cell-based; conditions: A375, 25 µM, 72 h
# Experimental: as §2
structure (smiles),measurement,setting,value
"N#CC(C#N)=NNc1ccc(OC(F)(F)F)cc1 [FCCP, carbonyl cyanide 4-(trifluoromethoxy) phenylhydrazone]",Ratio of red JC-1 aggregates to green JC-1 monomers,[1],lowest red/green ratio
"CCCc1nc2c(C)cc(-c3nc4ccccc4n3C)cc2n1Cc1ccc(-c2ccccc2C(=O)O)cc1 [Telmisartan, reference compound]",IC50,[2],70.4 ± 5.61 µM
same,IC50,[3],70.2 ± 3.83 µM
same,"Compound accumulation normalized to telmisartan, Chromatin Bound",[4],1.00
same,"Compound accumulation normalized to telmisartan, Cytoplasm",[4],1.00
same,"Compound accumulation normalized to telmisartan, Cytoskeleton",[4],1.00
same,Accumulation in the membrane fraction,[4]; membrane fraction,0.197 µmol/L
same,"Compound accumulation normalized to telmisartan, Membrane",[4]; membrane fraction,1.00
same,"Compound cell accumulation normalized to telmisartan, Whole Lysate",[4],1.00
same,Selectivity,"[5]; A375R versus normal cell lines (HaCaT, MRC-5), from IC50 values",> 2.40
same,IC50,[5],29.2 ± 3.88 µM
same,Maximum steady-state plasma level,[6],around 20 μM
same,IC50,[7],148 ± 2.89 µM
same,IC50,[8],59.1 ± 4.17 µM
same,Cell cycle distribution,[9],cell cycle profile comparable to that of the untreated control cells
same,Effect on AngII-induced Ca2+ increase (combination treatment),[10],prevented AngII-induced Ca^2+ increase
"CCCc1nc2c(C)cc(-c3nc4ccccc4n3C)cc2n1Cc1ccc(-c2ccccc2C(=O)NC(Cc2cn(C)c3ccccc23)C(=O)O)cc1 (stereo not drawn) [compound 1, 2-{[4′-(1,7′-dimethyl-2′-propyl-1H-[2,5′]bibenzoimidazolyl-3′-ylmethyl)-biphenyl-2-carbonyl]-amino}-3-(1-methyl-1H-indol-3-yl)-propionic acid]",IC50,[2],26.7 ± 2.48 µM
same,Mitochondrial network morphology,[11],dramatic fission and clumping of mitochondria
same,IC50,[3],23.5 ± 2.08 µM
same,"Compound accumulation normalized to telmisartan, Chromatin Bound",[4],36.22
same,"Compound accumulation normalized to telmisartan, Cytoplasm",[4],17.80
same,"Compound accumulation normalized to telmisartan, Cytoskeleton",[4],21.14
same,"Compound accumulation normalized to telmisartan, Membrane",[4]; membrane fraction,106.59
same,"Compound cell accumulation normalized to telmisartan, Whole Lysate",[4],12.08
same,IC50,[5],19.7 ± 8.87 µM
same,IC50,[7],43.9 ± 3.42 µM
same,Effect on cell viability at single concentration,"[8]; A375, 25 μM, MTT",significant reductions in cell viability
same,IC50,[8],27.2 ± 0.63 µM
same,Cell cycle distribution,[9],cell accumulation in the G0/G1 phase
same,Effect on AngII-induced Ca2+ increase (combination treatment),[10],did not prevent AngII-induced Ca^2+ increase
same,Effect of compound alone on baseline Ca2+ signaling,"[10]; A375, compound alone",no significant changes in the baseline Ca^2+ signaling
same,Cell cycle distribution,[12],"increased accumulation of cells in the subG1 phase, albeit not statistically significant"
"CCCc1nc2c(C)cc(-c3nc4ccccc4n3C)cc2n1Cc1ccc(-c2ccccc2C(=O)NC(Cc2cnc[nH]2)C(=O)O)cc1 (stereo not drawn) [compound 2, 2-{[4′-(1,7′-dimethyl-2′-propyl-1H-[2,5′]bibenzoimidazolyl-3′-ylmethyl)-biphenyl-2-carbonyl]-amino}-3-(3H-imidazol-4-yl)-propionic acid]",IC50,[3],> 150 µM
same,IC50,[8],> 150 µM
"CCCc1nc2c(C)cc(-c3nc4ccccc4n3C)cc2n1Cc1ccc(-c2ccccc2C(=O)NC(C(=O)O)C(C)CC)cc1 (stereo not drawn) [compound 4, 2-{[4′-(1,7′-dimethyl-2′-propyl-1H-[2,5′]bibenzoimidazolyl-3′-ylmethyl)-biphenyl-2-carbonyl]-amino}-3-methyl-pentanoic acid]",IC50,[3],49 ± 3.17 µM
same,IC50,[8],43 ± 6.02 µM
"CCCc1nc2c(C)cc(-c3nc4ccccc4n3C)cc2n1Cc1ccc(-c2ccccc2C(=O)NCC(=O)O)cc1 [compound 5, {[4′-(1,7′-dimethyl-2′-propyl-1H-[2,5′]bibenzoimidazolyl-3′-ylmethyl)-biphenyl-2-carbonyl]-amino}-acetic acid]",IC50,[3],81.5 ± 6.28 µM
same,IC50,[8],86.22 ± 0.64 µM
"CCCc1nc2c(C)cc(-c3nc4ccccc4n3C)cc2n1Cc1ccc(-c2ccccc2C(=O)NCCCC(=O)O)cc1 [compound 6, 4-{[4′-(1,7′-dimethyl-2′-propyl-1H-[2,5′]bibenzoimidazolyl-3′-ylmethyl)-biphenyl-2-carbonyl]-amino}-butyric acid]",IC50,[3],89.2 ± 7.37 µM
same,IC50,[8],116 ± 6.94 µM
"CCCc1nc2c(C)cc(-c3nc4ccccc4n3C)cc2n1Cc1ccc(-c2ccccc2C(=O)NC(CC(C)C)C(=O)O)cc1 (stereo not drawn) [compound 7, 2-{[4′-(1,7′-dimethyl-2′-propyl-1H-[2,5′]bibenzoimidazolyl-3′-ylmethyl)-biphenyl-2-carbonyl]-amino}-4-methyl-pentanoic acid]",IC50,[3],39.7 ± 2.4 µM
same,IC50,[8],43.2 ± 3.55 µM
